Experimental findings from patent publication US11331341B2, “Combination therapies that enhance antimicrobial/anticancer activities” (International Business Machines Corporation, priority 2020, dated 2022) are described below.

In brackets after ≈: the same amount, converted by molar mass. Where two headings read alike, the source gives them in different places. Some results are limits rather than exact numbers.

In experiment [1] the test system is therapeutic-susceptible MCF7 cancer cells. The experiment can be described thus: Cytotoxicity against therapeutic-susceptible MCF7. The experiment is classed as cell-based. The following applies: Homo sapiens. As for the experimental part:
(§1) Further, Table 2 regards anticancer activity against therapeutic-susceptible MCF7 cancer cells with an incubation time of 48 hours. For the combination therapies, the cancer cells were treated with the antimicrobial polymer for 4 hours followed by treatment with doxorubicin for 44 hours. Also, Table 3 regards anticancer activity against therapeutic-resistant MCF7 cancer cells with an incubation time of 48 hours. For the combination therapies, the cancer cells were treated with the antimicrobial polymer for 4 hours followed by treatment with doxorubicin for 44 hours.

Experiment [2] relates to BT474 cell line. In words: cells. The following applies: Homo sapiens, BT-474, read-out: absolute IC50 in treating BT474. From the text:
Cytotoxicity graph 2100 regards treating BT474 solely with doxorubicin.

Experiment [3] relates to therapeutic-resistant MCF7/ADR cell line. The experiment can be described thus: Cytotoxicity against therapeutic-resistant MCF7/ADR. The experiment is classed as cell-based. The following applies: Homo sapiens. As for the experimental part: as §1
For experiment [4], the system named is therapeutic-resistant SK-OV-3-TR cell line. In words: Cytotoxicity against SK-OV-3-TR. The following applies: SKOV3TR; FIG. 25; read-out: absolute IC50 in treating SK-OV-3-TR. The experiment is classed as cell-based.
Text: Cytotoxicity graph 2500 regards treating SK-OV-3-TR solely with paclitaxel. […] Cytotoxicity graph 2502 regards treating SK-OV-3-TR solely with the example quaternary ammonium functionalized antimicrobial polymer 1402 (e.g., wherein “n” equals 21). […] Cytotoxicity graph 2504 regards treating SK-OV-3-TR solely with the example guanidinium functionalized antimicrobial polymer 1404 (e.g., wherein “m” equals 20). […] Cytotoxicity graph 2506 regards treating SK-OV-3-TR with a combination therapy of paclitaxel with 0.5 IC50 of the example quaternary ammonium functionalized antimicrobial polymer 1402 (e.g., wherein “n” equals 21). […] Cytotoxicity graph 2508 regards treating SK-OV-3-TR with a combination therapy of paclitaxel with 0.5 IC50 of example guanidinium functionalized antimicrobial polymer 1404 (e.g., wherein “m” equals 20).
In experiment [5] the test system is MCR-1-positive E. coli strains. The experiment can be described thus: Checkerboard assay / MIC, MCR-1-positive colistin-resistant E. coli. The experiment is classed as cell-based. The following applies: for MIC against MCR-1-positive E. coli: alone. From the text:
Repetitive description of like elements employed in other embodiments described herein is omitted for sake of brevity.
Plasmid-mediated colistin-resistance has been reported in Gram-negative bacteria, which resulted from a MCR-1 enzyme that catalyzes the transfer of phosphoethanolamine to lipid A; thereby rendering the membrane more electropositive.

[6] abbreviates: MCF7, FIG. 22 and FIG. 24, read-out: absolute IC50 in treating MCF7.
[7] abbreviates: NCI/ADR-RES, FIG. 23 and FIG. 24, read-out: absolute IC50 in treating MCF7/ADR.

For the molecule `COc1cccc2c1C(=O)c1c(O)c3c(c(O)c1C2=O)C[C@@](O)(C(=O)CO)C[C@@H]3O[C@H]1C[C@H](N)[C@H](O)[C@H](C)O1` [DOX, doxorubicin], the IC50 in experiment [1] (setting [6]) is 0.15 µg/mL; in experiment [1] (MCF7, incubation 48 hours, combinations: polymer for 4 hours followed by doxorubicin for 44 hours, read-out: Absolute IC50), 0.054 µg/mL; in experiment [2], 8.42 µg/mL (≈ 15.5 µM); in experiment [3] (setting [7]), 139 µg/mL; in experiment [3] (therapeutic-resistant MCF7, incubation 48 hours, combinations: polymer for 4 hours followed by doxorubicin for 44 hours, read-out: Absolute IC50), 375 µg/mL.

Take `CC(=O)O[C@H]1C(=O)[C@@]2(C)[C@H]([C@H](OC(=O)c3ccccc3)[C@]3(O)C[C@H](OC(=O)[C@H](O)[C@@H](NC(=O)c4ccccc4)c4ccccc4)C(C)=C1C3(C)C)[C@]1(OC(C)=O)CO[C@@H]1C[C@@H]2O` [paclitaxel]: the figures for the IC50 in experiment [4], in experiment [1] (setting [6]) and in experiment [3] (setting [7]) were 27.4 µg/mL (≈ 32.1 µM), 19.7 µg/mL and 5150 µg/mL, respectively.

colistimethate sodium: the results for the “MIC against MCR-1-positive E. coli” value in experiment [5] (first of two MCR-1-positive E. coli strains) and in experiment [5] (second of two MCR-1-positive E. coli strains) were 15.6 µg/mL and 31.3 µg/mL, respectively.

With colistin, in experiment [5] (with pQuat_20 at ½×MIC), the “colistin MIC against MCR-1 colistin-resistant bacteria” value is less than 0.49 µg/mL.
